Reference: BigSolDB 2.1

CC1(C)CC(NCCCCCCNC2CC(C)(C)NC(C)(C)C2)CC(C)(C)N1
solubility (mole fraction) (in acetone, 273.15 K): 0.00859
solubility (mole fraction) (in acetone, 278.15 K): 0.013
solubility (mole fraction) (in acetone, 283.15 K): 0.0191
solubility (mole fraction) (in acetone, 288.15 K): 0.029
solubility (mole fraction) (in acetone, 293.15 K): 0.0467
solubility (mole fraction) (in acetone, 298.15 K): 0.0737
solubility (mole fraction) (in acetone, 303.15 K): 0.117
solubility (mole fraction) (in acetonitrile, 273.15 K): 0.00115
solubility (mole fraction) (in acetonitrile, 278.15 K): 0.00183
solubility (mole fraction) (in acetonitrile, 283.15 K): 0.00233
solubility (mole fraction) (in acetonitrile, 288.15 K): 0.00371
solubility (mole fraction) (in acetonitrile, 293.15 K): 0.00537
solubility (mole fraction) (in acetonitrile, 298.15 K): 0.00821
solubility (mole fraction) (in acetonitrile, 303.15 K): 0.0139
solubility (mole fraction) (in ethyl acetate, 273.15 K): 0.0288
solubility (mole fraction) (in ethyl acetate, 278.15 K): 0.0396
solubility (mole fraction) (in ethyl acetate, 283.15 K): 0.056
solubility (mole fraction) (in ethyl acetate, 288.15 K): 0.0776
solubility (mole fraction) (in ethyl acetate, 293.15 K): 0.108
solubility (mole fraction) (in ethyl acetate, 298.15 K): 0.145
solubility (mole fraction) (in ethyl acetate, 303.15 K): 0.193
solubility (mole fraction) (in isobutyl acetate, 273.15 K): 0.0497
solubility (mole fraction) (in isobutyl acetate, 278.15 K): 0.0625
solubility (mole fraction) (in isobutyl acetate, 283.15 K): 0.0831
solubility (mole fraction) (in isobutyl acetate, 288.15 K): 0.108
solubility (mole fraction) (in isobutyl acetate, 293.15 K): 0.139
solubility (mole fraction) (in isobutyl acetate, 298.15 K): 0.178
solubility (mole fraction) (in isobutyl acetate, 303.15 K): 0.226
solubility (mole fraction) (in isopropyl acetate, 273.15 K): 0.0408
solubility (mole fraction) (in isopropyl acetate, 278.15 K): 0.0549
solubility (mole fraction) (in isopropyl acetate, 283.15 K): 0.0736
solubility (mole fraction) (in isopropyl acetate, 288.15 K): 0.0983
solubility (mole fraction) (in isopropyl acetate, 293.15 K): 0.128
solubility (mole fraction) (in isopropyl acetate, 298.15 K): 0.165
solubility (mole fraction) (in isopropyl acetate, 303.15 K): 0.212
solubility (mole fraction) (in methyl acetate, 273.15 K): 0.0224
solubility (mole fraction) (in methyl acetate, 278.15 K): 0.0321
solubility (mole fraction) (in methyl acetate, 283.15 K): 0.0448
solubility (mole fraction) (in methyl acetate, 288.15 K): 0.0663
solubility (mole fraction) (in methyl acetate, 293.15 K): 0.102
solubility (mole fraction) (in methyl acetate, 298.15 K): 0.142
solubility (mole fraction) (in methyl acetate, 303.15 K): 0.185
solubility (mole fraction) (in n-propyl acetate, 273.15 K): 0.0341
solubility (mole fraction) (in n-propyl acetate, 278.15 K): 0.046
solubility (mole fraction) (in n-propyl acetate, 283.15 K): 0.063
solubility (mole fraction) (in n-propyl acetate, 288.15 K): 0.084
solubility (mole fraction) (in n-propyl acetate, 293.15 K): 0.113
solubility (mole fraction) (in n-propyl acetate, 298.15 K): 0.152
solubility (mole fraction) (in n-propyl acetate, 303.15 K): 0.2
